Experimental data published in patent publication US20140315933A1, “CHEMICAL COMPOUNDS” (Pfizer Limited, priority 2013, published 2014).
Counter-ions that a name gives are not always drawn.

These molecules were tested against T1, URAT-1 transporter (Homo sapiens, UniProt Q96S37) (assay: URAT-1 inhibitor activity: [14C]-uric acid uptake into CHO-URAT1(L)GFP#8 (CHO#8) cells, scintillation proximity).
T1 construct: expressed in transfected cells
T1 sequence (Q96S37 with tags, fused parts or gaps): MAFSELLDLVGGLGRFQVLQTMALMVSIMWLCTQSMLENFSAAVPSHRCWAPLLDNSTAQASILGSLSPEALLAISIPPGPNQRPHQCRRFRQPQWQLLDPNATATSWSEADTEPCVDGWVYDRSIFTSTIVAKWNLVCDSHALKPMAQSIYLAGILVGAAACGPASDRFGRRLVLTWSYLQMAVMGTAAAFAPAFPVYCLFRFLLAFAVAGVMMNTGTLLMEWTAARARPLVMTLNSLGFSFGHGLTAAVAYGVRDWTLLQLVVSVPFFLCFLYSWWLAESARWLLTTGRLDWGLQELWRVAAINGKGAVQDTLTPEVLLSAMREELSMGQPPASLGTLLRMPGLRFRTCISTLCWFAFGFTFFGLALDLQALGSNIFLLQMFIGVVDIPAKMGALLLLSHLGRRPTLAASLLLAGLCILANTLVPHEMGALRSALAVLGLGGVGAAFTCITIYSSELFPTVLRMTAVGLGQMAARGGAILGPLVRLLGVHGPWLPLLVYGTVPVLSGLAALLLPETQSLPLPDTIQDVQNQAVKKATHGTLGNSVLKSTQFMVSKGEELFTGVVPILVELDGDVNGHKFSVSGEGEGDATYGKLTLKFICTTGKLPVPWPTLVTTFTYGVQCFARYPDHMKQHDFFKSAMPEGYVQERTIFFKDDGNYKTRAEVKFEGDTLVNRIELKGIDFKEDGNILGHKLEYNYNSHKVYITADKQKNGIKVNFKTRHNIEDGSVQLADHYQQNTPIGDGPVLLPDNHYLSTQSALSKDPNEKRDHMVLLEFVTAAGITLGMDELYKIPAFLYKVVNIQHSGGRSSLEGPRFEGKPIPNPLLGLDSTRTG
Type: cell-based
Method in brief: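 CHO cells stably expressing human URAT1 long isoform C-terminally fused to eGFP, preincubated 1 hour in chloride-containing buffer, then 15 minutes with compound (0–10 μM, 0.25% DMSO) in chloride-free buffer pH 7.4. [14C]-uric acid at 30 nM final added; uptake read by scintillation proximity after three hours at room temperature, dark.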
With `COc1ccc(Cl)c(Oc2ccc(S(=O)(=O)Nc3ncns3)cc2C#N)c1` [compound 261] the IC50 was 1820 nM. With `COc1cccc(Oc2cc(F)c(S(=O)(=O)Nc3nncs3)cc2Cl)c1C` [compound 323] the IC50 was 2170 nM. Work on `CC(C)c1cccc(Oc2ccc(S(=O)(=O)Nc3ncns3)cc2C#N)c1` [Example 14, 3-cyano-4-[3-(propan-2-yl)phenoxy]-N-(1,2,4-thiadiazol-5-yl)benzenesulfonamide diethylamine salt] yielded an IC50 greater than 2900 nM. Work on `Cc1ccccc1Oc1cc(F)c(S(=O)(=O)Nc2nncs2)cc1Cl` [compound 328] yielded an IC50 greater than 830 nM. Work on `Cc1ccc(Oc2ccc(S(=O)(=O)Nc3ncns3)cc2C#N)cc1` [compound 258] yielded an IC50 of 3120 nM. In the case of `COc1ccccc1Oc1cc(F)c(S(=O)(=O)Nc2nncs2)cc1Cl` [compound 305], the IC50 is reported as greater than 5780 nM. With `N#Cc1cc(S(=O)(=O)Nc2nccs2)ccc1Oc1ccc(F)c(F)c1` [Example 243, 3-cyano-4-(3,4-difluorophenoxy)-N-(1,3-thiazol-2-yl)benzenesulfonamide] the IC50 was 77 nM. With `CC(C)(F)COc1ncc(Oc2ccc(S(=O)(=O)Nc3nncs3)cc2C#N)cc1Cl` [Example 339] the IC50 was greater than 10000 nM. Work on `Cc1ccc(Oc2cc(F)c(S(=O)(=O)Nc3nncs3)cc2Cl)cc1` [compound 314] yielded an IC50 greater than 10000 nM. For `O=S(=O)(Nc1ncns1)c1ccc(Oc2ccc(F)c(F)c2)c(F)c1` [compound 195], the IC50 was 2240 nM. `N#Cc1cc(Oc2cc(F)c(S(=O)(=O)Nc3cscn3)cc2Cl)ccc1F` [compound 235] was tested, and the IC50 was greater than 10000 nM. Work on `N#Cc1cc(S(=O)(=O)Nc2ncns2)ccc1Oc1cccnc1` [compound 253, trifluoroacetic acid salt] yielded an IC50 of 2130 nM. `N#Cc1cc(S(=O)(=O)Nc2ncc(F)s2)ccc1Oc1ccc(Cl)cc1C(F)(F)F` [Example 92, 4-[4-chloro-2-(trifluoromethyl)phenoxy]-3-cyano-N-(5-fluoro-1,3-thiazol-2-yl)benzenesulfonamide] showed an IC50 greater than 7860 nM. With `O=S(=O)(Nc1cscn1)c1cc(Cl)c(Oc2ccc(F)cc2I)cc1F` [Example 149, 5-chloro-2-fluoro-4-(4-fluoro-2-iodophenoxy)-N-(1,3-thiazol-4-yl)benzenesulfonamide] the IC50 was 494 nM. Molecule `N#Cc1cc(S(=O)(=O)Nc2ncc(F)s2)ccc1Oc1cc(F)c(F)c(F)c1` [Example 118, 3-cyano-N-(5-fluoro-1,3-thiazol-2-yl)-4-(3,4,5-trifluorophenoxy)benzenesulfonamide] has an IC50 of 1380 nM. `CC(Oc1ncc(Oc2ccc(S(=O)(=O)Nc3nncs3)cc2C#N)cc1Cl)C(F)(F)F` (stereo not shown) [Example 335] gave an IC50 of 3260 nM. Work on `N#Cc1ccc(Oc2ccc(S(=O)(=O)Nc3nncs3)cc2C#N)cc1Cl` [compound 219] yielded an IC50 of 426 nM. `CCOc1ccc(Oc2ccc(S(=O)(=O)Nc3nccs3)cc2C#N)cn1` [Example 191, 3-cyano-4-[(6-ethoxypyridin-3-yl)oxy]-N-(1,3-thiazol-2-yl)benzenesulfonamide] was tested, and the IC50 was greater than 10000 nM. `O=S(=O)(Nc1cscn1)c1ccc(Oc2ccc(F)c(F)c2)cc1Cl` [compound 237] was tested, and the IC50 was greater than 10000 nM. With `O=S(=O)(Nc1cscn1)c1cc(Cl)c(Oc2ccc(F)c(F)c2)cc1F` [compound 229] the IC50 was greater than 10000 nM. For `CCc1ncccc1Oc1ccc(S(=O)(=O)Nc2ncns2)cc1C#N` [compound 273, trifluoroacetic acid salt], the IC50 was greater than 10000 nM. With `CC(C)c1cccc(Oc2ccc(S(=O)(=O)Nc3ncc(F)s3)cc2C#N)c1` [Example 107, 3-cyano-N-(5-fluoro-1,3-thiazol-2-yl)-4-[3-(propan-2-yl)phenoxy]benzenesulfonamide] the IC50 was greater than 6780 nM. For `N#Cc1cc(S(=O)(=O)Nc2ncns2)ccc1Oc1cncc(Cl)c1` [Example 19, 4-[(5-chloropyridin-3-yl)oxy]-3-cyano-N-(1,2,4-thiadiazol-5-yl)benzenesulfonamide], the IC50 was greater than 10000 nM. `CC(C)c1ncccc1Oc1ccc(S(=O)(=O)Nc2ncns2)cc1C#N` [compound 274, trifluoroacetic acid salt] showed an IC50 greater than 10000 nM. `CCc1cc(F)ccc1Oc1cc(F)c(S(=O)(=O)Nc2cscn2)cc1Br` [Example 78, 5-bromo-4-(2-ethyl-4-fluorophenoxy)-2-fluoro-N-(1,3-thiazol-4-yl)benzenesulfonamide] showed an IC50 of 165 nM. `COc1cc(C)cc(Oc2cc(F)c(S(=O)(=O)Nc3nncs3)cc2Cl)c1` [compound 301] was tested, and the IC50 was 382 nM. With `N#Cc1cc(S(=O)(=O)Nc2ncc(F)s2)ccc1Oc1cc(F)cc(Cl)c1` [Example 126, 4-(3-chloro-5-fluorophenoxy)-3-cyano-N-(5-fluoro-1,3-thiazol-2-yl)benzenesulfonamide] the IC50 was 699 nM. `CCOc1cccc(Oc2ccc(S(=O)(=O)Nc3ncc(F)s3)cc2C#N)c1` [Example 100, 3-cyano-4-(3-ethoxyphenoxy)-N-(5-fluoro-1,3-thiazol-2-yl)benzenesulfonamide] was tested, and the IC50 was 554 nM. `N#Cc1cc(Oc2ccc(S(=O)(=O)Nc3ncns3)cc2F)ccc1F` [compound 194] was tested, and the IC50 was greater than 7150 nM. With `N#Cc1cc(S(=O)(=O)Nc2ncns2)ccc1Oc1cccc(F)c1F` [Example 49, 3-cyano-4-(2,3-difluorophenoxy)-N-(1,2,4-thiadiazol-5-yl)benzenesulfonamide] the IC50 was 1460 nM. Molecule `O=S(=O)(Nc1nncs1)c1cc(Cl)c(Oc2ccc(Cl)cc2OC(F)F)cc1F` [Example 152, 5-chloro-4-[4-chloro-2-(difluoromethoxy)phenoxy]-2-fluoro-N-(1,3,4-thiadiazol-2-yl)benzenesulfonamide] has an IC50 greater than 10000 nM. `N#Cc1cc(S(=O)(=O)Nc2ncns2)ccc1Oc1ccccc1F` [Example 36, 3-cyano-4-(2-fluorophenoxy)-N-(1,2,4-thiadiazol-5-yl)benzenesulfonamide] gave an IC50 of 1940 nM. Work on `COc1cc(C#N)c(F)cc1Oc1cc(F)c(S(=O)(=O)Nc2nncs2)cc1Cl` [compound 316] yielded an IC50 greater than 10000 nM. For `N#Cc1cc(S(=O)(=O)Nc2ncc(F)s2)ccc1Oc1ccc(Cl)cc1F` [Example 116, 4-(4-chloro-2-fluorophenoxy)-3-cyano-N-(5-fluoro-1,3-thiazol-2-yl)benzenesulfonamide], the IC50 was greater than 5310 nM. For `N#Cc1cc(S(=O)(=O)Nc2nccs2)ccc1Oc1ccc(Cl)c(I)c1` [compound 169], the IC50 was 73 nM. Work on `N#Cc1cc(S(=O)(=O)Nc2ncns2)ccc1Oc1ccc(F)c(F)c1` [compound 212] yielded an IC50 of 782 nM. `N#Cc1cc(S(=O)(=O)Nc2ncc(F)s2)ccc1Oc1cccc(C(F)(F)F)c1` [Example 133, 3-cyano-N-(5-fluoro-1,3-thiazol-2-yl)-4-[3-(trifluoromethyl)phenoxy]benzenesulfonamide] was tested, and the IC50 was 1580 nM. In the case of `COc1cc(Cl)ccc1Oc1ccc(S(=O)(=O)Nc2cscn2)c(OC)c1` [Example 79, 4-(4-chloro-2-methoxyphenoxy)-2-methoxy-N-(1,3-thiazol-4-yl)benzenesulfonamide diethylamine salt], the IC50 is reported as greater than 10000 nM. For `Cc1cc(S(=O)(=O)Nc2nncs2)c(F)cc1Oc1ccc(F)c(C#N)c1` [compound 214], the IC50 was greater than 10000 nM. `O=S(=O)(Nc1nccs1)c1ccc(Oc2ccc(F)c(F)c2)c(F)c1` [compound 226] showed an IC50 greater than 10000 nM. For `CCc1cc(Oc2ccc(S(=O)(=O)Nc3ncc(F)s3)cc2C#N)ccc1Cl` [Example 142, 4-(4-chloro-3-ethylphenoxy)-3-cyano-N-(5-fluoro-1,3-thiazol-2-yl)benzenesulfonamide], the IC50 was 540 nM. For `O=S(=O)(Nc1ncns1)c1ccc(Oc2cccc(C(F)(F)F)c2F)c(Cl)c1` [Example 65, 3-chloro-4-[2-fluoro-3-(trifluoromethyl)phenoxy]-N-(1,2,4-thiadiazol-5-yl)benzenesulfonamide diethylamine salt], the IC50 was 1490 nM. Molecule `COc1ccc(Oc2ccc(S(=O)(=O)Nc3ncns3)cc2C#N)cc1Cl` [compound 268] has an IC50 of 1470 nM. `COc1cccc(Cl)c1Oc1cc(F)c(S(=O)(=O)Nc2nncs2)cc1Cl` [compound 303] gave an IC50 greater than 1430 nM. `COc1cc(C)ccc1Oc1ccc(S(=O)(=O)Nc2ncns2)cc1C#N` [compound 285] was tested, and the IC50 was 5590 nM. `N#Cc1cc(S(=O)(=O)Nc2ncns2)ccc1Oc1ccc(Cl)cc1` [Example 13, 4-(4-chlorophenoxy)-3-cyano-N-(1,2,4-thiadiazol-5-yl)benzenesulfonamide diethylamine salt] was tested, and the IC50 was 1270 nM. `COc1ccncc1Oc1ccc(S(=O)(=O)Nc2ncns2)cc1C#N` [Example 18, 3-cyano-4-[(4-methoxypyridin-3-yl)oxy]-N-(1,2,4-thiadiazol-5-yl)benzenesulfonamide] showed an IC50 greater than 10000 nM. For `COc1cccc(C)c1Oc1cc(F)c(S(=O)(=O)Nc2nncs2)cc1Cl` [compound 321], the IC50 was 275 nM. For `CCc1cc(F)ccc1Oc1ccc(S(=O)(=O)Nc2nccs2)c(F)c1` [Example 72, 4-(2-ethyl-4-fluorophenoxy)-2-fluoro-N-(1,3-thiazol-2-yl)benzenesulfonamide], the IC50 was greater than 10000 nM. Molecule `N#Cc1cc(S(=O)(=O)Nc2ncc(F)s2)ccc1Oc1ccc(F)cc1Cl` [Example 130, 4-(2-chloro-4-fluorophenoxy)-3-cyano-N-(5-fluoro-1,3-thiazol-2-yl)benzenesulfonamide] has an IC50 of 414 nM. In the case of `Cc1ccncc1Oc1cc(F)c(S(=O)(=O)Nc2nncs2)cc1Cl` [compound 313], the IC50 is reported as 3170 nM. `N#Cc1cc(S(=O)(=O)Nc2ncc(F)s2)ccc1Oc1cc(C(F)(F)F)ccc1F` [Example 134, 3-cyano-N-(5-fluoro-1,3-thiazol-2-yl)-4-[2-fluoro-5-(trifluoromethyl)phenoxy]benzenesulfonamide] was tested, and the IC50 was 718 nM. `N#Cc1cc(S(=O)(=O)Nc2ncc(Cl)s2)ccc1Oc1ccc(F)c(F)c1` [compound 197, N-(5-chloro-1,3-thiazol-2-yl)-3-cyano-4-(3,4-difluorophenoxy)benzenesulfonamide] was tested, and the IC50 was 225 nM. `Cc1ccc(Cl)cc1Oc1ccc(S(=O)(=O)Nc2ncc(F)s2)cc1C#N` [Example 129, 4-(5-chloro-2-methylphenoxy)-3-cyano-N-(5-fluoro-1,3-thiazol-2-yl)benzenesulfonamide] showed an IC50 of 480 nM. `COc1cc(OC(F)(F)F)ccc1Oc1ccc(S(=O)(=O)Nc2ncns2)cc1C#N` [Example 27, 3-cyano-4-[2-methoxy-4-(trifluoromethoxy)phenoxy]-N-(1,2,4-thiadiazol-5-yl)benzenesulfonamide diethylamine salt] showed an IC50 greater than 10000 nM.
